Reference: patent US20170050934A1 (priority 2014, published 2017)

Legend:
[1] = system: rice blast fungus (Magnaporthe grisea); assay: microbe, parasite or virus in culture; type: cell-based; conditions: Pyricularia oryzae, read-out: antimicrobial activity, inhibition of Magnaporthe grisea
[2] = system: Botrytis cinerea AARF-033; assay: Antimicrobial activity test against rice Botrytis cinerea (conidia, 96 well microplate); type: cell-based; conditions: AARF033, 96 h, conidia 1×10^4 conidia/ml in potato-glucose broth, 25° C. for 4 days
Excerpt: Test specimen (compound (A2-1) and compound (A5-1)) and reference agents i.e. iprodione and captan, were, respectively, dissolved in dimethyl sulfoxide (DMSO) and adjusted to 10,000 ppm. To a flat bottom 96 well microplate, 2 μ/ml of each test solution was dispensed, and then, 198 μ/ml of conidia of rice Botrytis cinerea (Botrytis cinerea AARF-033) cultured on a potato-glucose agar medium, and suspended in a potato-glucose broth and adjusted to 1×10^4 conidia/ml, were dispensed, followed by stirring by a micro mixer. At that time, the concentration of each test specimen and reference agent, was 100 ppm. Thereafter, culturing under standing-still condition was conducted at 25° C. for 4 days, whereby the antimicrobial activities were evaluated.

SMILES	inhibition at 100 ppm [1]	inhibition at 100 ppm [2]
CCCCNC(=O)n1c(NC(=O)OC)nc2ccccc21 [Benomyl, benomyl]	≥ 95%	–
O=C1C2CC=CCC2C(=O)N1SC(Cl)(Cl)Cl (centres unmarked) [Captan, captan]	–	≥ 95%
CCOC(=O)c1cnc(-c2ccccc2)nc1C(F)(OC(F)(F)C(F)(F)C(F)(F)F)C(F)(F)F (centres unmarked) [Compound A2-1]	≥ 95%	≥ 95%
Nc1cnc(-c2ccccc2)nc1C(F)(F)OC(F)(F)C(F)(F)OC(F)(F)C(F)(F)F [Compound A5-1]	≥ 95%	≥ 95%
CO/N=C(/C1=NOCCO1)c1ccccc1Oc1ncnc(Oc2ccccc2Cl)c1F [Fluoxastrobin, fluoxastrobin]	≥ 95%	–
CC(C)NC(=O)N1CC(=O)N(c2cc(Cl)cc(Cl)c2)C1=O [Iprodione, iprodione]	–	≥ 95%
